Consider 25 compounds from patent US10633389B2, “CARM1 inhibitors and uses thereof” (Epizyme, Inc., priority 2013, dated 2020).

SMILES strings stand for the structures.

The experiment deals with asymmetric di-methyl PABP1 in RKO cells. The experiment can be described thus: RKO methylation assay, In Cell Western (ICW) for asymmetric di-methyl PABP1. The experiment is classed as cell-based. As to conditions: Homo sapiens, RKO, Cellular potencies, ICW PABP1me2a. An outline of the steps:
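RKO cells treated with compound for 48 h at 37 °C, then fixed, permeabilized and immunostained for asymmetric di-methyl PABP1, with DRAQ5 as DNA stain. Infrared 700/800 nm signal ratio normalized to DMSO and 20 μM reference-compound controls; IC50 from triplicate wells.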
Broadly, the IC50 is the concentration at which inhibition is half-maximal. Higher therefore signals weaker potency in that assay. The compound `CNC[C@H](O)COc1ccc(Cl)c(-c2nc(NC[C@H]3COCCN3C(=O)OC)c(C)c(-c3c(C)noc3C)n2)c1` [Example 58-3] displayed an IC50 below 5 µM.

Take `CNCC(O)COc1cccc(-c2nc(-c3c(C)noc3C)cc(N(C)CCC#N)n2)c1` (stereo not shown) [Example 5-1a]: the IC50 lay within 10 to 20 µM.

`CNCC(O)COc1cccc(-c2nc(-c3c(C)noc3C)c(C)c(N3CCOC(C)(C)C3)n2)c1` (stereo not shown) [Example 200-1a] showed a half-inhibitory concentration (IC50) below 5 µM.

As to `CNCC(O)COc1cccc(-c2nc(NC3CCOC3)c(C)c(N3CCN(C(C)=O)C[C@H]3C)n2)c1` (stereo partly shown) [Example 421-1a], the 50% inhibitory concentration (IC50) was in the range of 5 to 10 µM.

As to `CNCC(O)COc1cccc(-c2nc(NC3CCS(=O)(=O)CC3)cc(-c3c(C)noc3C)n2)c1` (stereo not shown) [Example 60-1a], the concentration for half-maximal inhibition (IC50) is 10 to 20 µM.

The compound `CNCC(O)COc1cccc(-c2nc(NC[C@@H]3CN(C(=O)OC)CCO3)c(C)c(-c3c(C)noc3C)n2)c1` (stereo partly shown) [Example 306-1a] displayed an IC50 below 5 µM.

Compound `CNC[C@@H](O)COc1ccc(Cl)c(-c2nc(N[C@H]3CCN(C4CC4)C[C@H]3F)c(Cl)c(-c3c(C)noc3C)n2)c1` [Example 195-3] had an IC50 below 5 µM.

The compound `CNCC(O)COc1cccc(-c2nc(Nc3nncs3)c(C)c(-c3c(C)noc3C)n2)c1` (stereo not shown) [Example 215-1a] had an IC50 below 5 µM.

Consider `CNCC(O)COc1cccc(-c2nc(-c3cnc4ncnn4c3)cc(N(C)C3CCOCC3)n2)c1` (stereo not shown) [Example 536-1a], for which the IC50 fell in the range of 5 to 10 µM.

As for `CNCC(O)COc1cccc(-c2nc(N[C@@H]3CCOC3)c(C)c(N3C[C@H]4C[C@@H]3CN4C)n2)c1` (stereo partly shown) [Example 443-1a], the IC50 was 10 to 20 µM.

`CNC[C@@H](O)COc1ccc(Cl)c(-c2nc(N[C@@H]3CCN(C)C[C@@H]3F)c(Cl)c(-c3c(C)noc3C)n2)c1` [Example 210-3] yielded an IC50 below 5 µM.

For `CCOC(=O)N1CCOC[C@@H]1CNc1nc(-c2cccc(OC[C@@H](O)CNC)c2)nc(-c2c(C)noc2C)c1C` [Example 278-1a], the IC50 was below 5 µM.

Compound `CNCC(O)COc1cccc(-c2nc(NC3CCOC(C)(C)C3)c(C)c(-c3c(C)noc3C)n2)c1` (stereo not shown) [Example 290-1a] yielded an IC50 below 5 µM.

In the case of `CNCC(O)COc1cccc(-c2nc(-c3cnn(CC(C)C)c3)cc(N(C)C3CCOCC3)n2)c1` (stereo not shown) [Example 516-1a], the IC50 lay in the range of 5 to 10 µM.

`CNCC(O)COc1cccc(-c2nc(-c3c(C)noc3C)c(C)c(N3CC4(CN(C(=O)N(C)C)C4)C3)n2)c1` (stereo not shown) [Example 309-1a] had an IC50 below 5 µM.

In turn, `CNC[C@@H](O)COc1ccc(Cl)c(-c2nc(N[C@H]3C[C@@H](C)O[C@@H](C)C3)c(Cl)c(-c3c(C)noc3C)n2)c1` [Example 173-3] returned an IC50 below 5 µM.

`CNC[C@@H](O)COc1ccc(Cl)c(-c2nc(NC3CC4(C3)CN(C(=O)OC)C4)c(C)c(-c3c(C)noc3C)n2)c1` [Example 146-3] showed an IC50 below 5 µM.

Turning to `CNCC(O)COc1cccc(-c2nc(-c3c(C)noc3C)c(C)c(N3CCC[C@H](N(C)C(=O)OC)C3)n2)c1` (stereo partly shown) [Example 15-3], the IC50 lay in the range of 5 to 10 µM.

The compound `CNC[C@@H](O)COc1ccc(Cl)c(-c2nc(-c3c(C)noc3C)c(C)c(N3CC(F)(F)C3)n2)c1` [Example 184-3] had an IC50 below 5 µM.

On to `CNCC(O)COc1cccc(-c2nc(-c3c(C)noc3C)cc(N3CCN(CCF)[C@@H](C)C3)n2)c1` (stereo partly shown) [Example 103-1a], for which the IC50 was below 5 µM.

`CNCC(O)COc1cccc(-c2nc(NC3CCOC3)c(C)c(N3CCN(CCF)CC3)n2)c1` (stereo not shown) [Example 446-1a] gave an IC50 below 5 µM.

As to `CNCC(O)COc1cccc(-c2nc(NC3CCCN(C4COC4)C3)c(C)c(-c3c(C)noc3C)n2)c1` (stereo not shown) [Example 246-1a], the IC50 lay within 5 to 10 µM.

As to `CNC[C@@H](O)COc1ccc(F)c(-c2nc(-c3c(C)noc3C)cc(N3Cc4nccnc4C3)n2)c1` [Example 274-3], the IC50 was below 5 µM.

Consider `CNC[C@@H](O)COc1ccc(Cl)c(-c2nc(-c3c(C)noc3C)c(C)c(N3Cc4cc(F)cnc4C3)n2)c1` [Example 157-3], for which the IC50 is below 5 µM.

Turning to `CNCC(O)COc1cccc(-c2nc(N[C@@H]3CCOC3)c(C)c(N3CCC3)n2)c1` (stereo partly shown) [Example 377-1a], the IC50 was in the range of 10 to 20 µM.
